Measurements reported in patent publication US20210023029A1, “EDASALONEXENT DOSING REGIMEN FOR TREATING MUSCULAR DYSTROPHY” (Catabasis Pharmaceuticals, Inc., priority 2017, published 2021).
“Also recorded” adds a separate entry of the source. Where two headings read alike, the source gives them in different places.

Experiments:
[1] = tested on: NF-κB regulated and inflammation-related gene transcripts; experiment: MoveDMD trial: NF-κB regulated and inflammation-related gene transcripts in whole blood (RNA sequencing); type: in vivo, human; settings: one week treatment
Procedure: To determine the effects of a given edasalonexent dosing regimen on NF-κB inhibition, the expression levels of a number of NF-κB regulated and inflammation-related gene transcripts were measured in whole blood samples from DMD patients.
NF-kB regulated and inflammation-related genes were chosen from the Broad Institute's HALLMARK TNF/NF-kB gene set (Liberzon, et. al., (2015), Cell Systems, 1(6):417-425). Blood was drawn from DMD boys before and one-week after edasalonexent treatment, and collected into PAXgene RNA tubes (Qiagen). RNA was extracted and sequenced to directly measure the abundance of transcripts in whole blood for both time points in each patient, and the abundance of transcripts one-week post treatment was compared to pre-treatment values to determine the relative change in each of the selected transcripts. This ratio for each gene across all patients within a dose cohort was averaged and is shown in FIG. 12 by columns as average +/−SEM. A value less than 1 indicates a decrease in the transcripts after one-week treatment with edasalonexent.

mdx mice = experiment: Quadriceps muscle inflammation and fibrosis in young mdx mice treated four weeks (H&E and picrosirius red staining); type: in vivo
Procedure: Young mdx mice were treated for four weeks with varying dosing regimens of edasalonexent. The mdx mouse is a useful and generally accepted animal model for studying Duchenne muscular dystrophy (DMD) (Mann et al. (2001) PROC. NATL. ACAD. SCI. 98(1):42-7). mdx mice are deficient in expression of full-length dystrophin due to a genetic mutation within the dystrophin gene.
Mice were administered edasalonexent in their diet, and/or by oral gavage. Specifically, mice were administered 1% edasalonexent in their diet, 450 mg/kg/day delivered orally as single daily dose, 450 mg/kg/day delivered orally as three equally divided doses, and/or 600 mg/kg/day delivered orally as two 150 mg/kg/doses and one 300 mg/kg/dose. For dosing regimens with three daily doses, doses were delivered at 7:00 am, noon and 5:00 pm.
The dosing regimens for each treatment group are depicted in TABLE 4. Each treatment group included 10-11 mice.
Animals were treated for four weeks, sacrificed, and tissues were collected for histological analysis. For assessment of inflammation and fibrosis, quadriceps muscles were processed for hematoxylin and eosin (H&E) and picrosirius red (collagen) histochemical staining. From each animal, 2-4 complete transverse sections were digitally analyzed using ImageJ, with the hematoxylin-stained nuclear area determined as a measure of inflammatory infiltration, and the picrosirius red-stained area determined as a measure of fibrosis.

[2] = Edasalonexent dosing regimen pharmacokinetics in C57BL/6 mice (diet or oral gavage, LC/MS/MS); type: in vivo; settings: for AUC / Cmax / Tmax / AUC(0-t): C57BL/6, mouse; for AUC(0-t): read-out: AUC0-24 h, day 3 (±SE)
Procedure: C57BL/6 mice were administered edasalonexent in their diet and/or by oral gavage. Pharmacokinetic (PK) modeling was used to identify suitable dosing amounts and timing in relation to the doses of 67 mg/kg/day and 100 mg/kg/day that have been tested in edasalonexent human clinical trials. Specifically, mice were administered 1.5% edasalonexent in their diet, 450 mg/kg/day delivered orally as single daily dose, 450 mg/kg/day delivered orally as three equally divided doses, or 600 mg/kg/day delivered orally as two 150 mg/kg/doses and one 300 mg/kg/dose. For dosing regimens with three daily doses, doses were delivered at 7:00 am, noon and 5:00 pm.
The dosing regimens for each group are depicted in TABLE 1. Each group included 12 mice.
For animals administered edasalonexent in their diet, edasalonexent concentration was measured by LC/MS/MS every 4 hours for 24 hours, beginning on the seventh day of dosing. For animals administered edasalonexent orally, edasalonexent concentration was measured by LC/MS/MS at 0.25, 0.5, 1, 2, 4, 6 and 24 hours after dosing, beginning on the third day of dosing.

[3] = group 2, 1% edasalonexent in diet
[4] = group 4, oral QD 450 mg/kg/dose
[5] = group 7, oral TID 150/150/300 mg/kg/dose = 600 mg/kg/day
[6] = gastrocnemius, 1.5% edasalonexent in diet (group 1)

With CC/C=C\C/C=C\C/C=C\C/C=C\C/C=C\C/C=C\CCC(=O)NCCNC(=O)c1ccccc1O [edasalonexent, N-(2-[(4Z,7Z,10Z,13Z,16Z,19Z)-docosa-4,7,10,13,16,19-hexaenamido]ethyl)-2-hydroxybenzamide] the “change in 24 NF-κB regulated and inflammation-related gene transcripts, Day 7 versus Day 1” value (shortened to “change”) ([1]; 33 mg/kg/day) was “decreases were generally not noted”, the “change” value ([1]; 67 mg/kg/day) was “not so pronounced” and the “change” value ([1]; 100 mg/kg/day) was “statistically significant decrease in all 24 transcripts; also recorded: most effective”. For the same molecule, the “quadriceps muscle fibrosis (picrosirius red-stained area)” value (“quadriceps muscle fibrosis” below) (mdx mice; [3]) was “reduced”, the “quadriceps muscle inflammation (hematoxylin-stained nuclear area)” value (“quadriceps muscle inflammation” below) (mdx mice; [3]) was “reduced” and the “quadriceps muscle fibrosis” value (mdx mice; [4]) was “did not cause a significant reduction”. For the same molecule, the “quadriceps muscle inflammation” value (mdx mice; [4]) was “did not cause a significant reduction”, the “quadriceps muscle fibrosis” value (mdx mice; [5]) was “further drove efficacy” and the “quadriceps muscle inflammation” value (mdx mice; [5]) was “further drove efficacy”. It also gave an AUC ([2]; po, 1.5 % in diet, gastrocnemius, 1.5% edasalonexent in diet (group 1)) of 7.62 µg·h/mL, a Cmax ([2]; po, 1.5 % in diet, gastrocnemius, 1.5% edasalonexent in diet (group 1), read-out: Cmax) of 0.532 µg/mL and an AUC ([2]; po, 1.5 % in diet, plasma, 1.5% edasalonexent in diet (group 1)) of 0.524 µg·h/mL. The Cmax ([2]; po, 1.5 % in diet, plasma, 1.5% edasalonexent in diet (group 1), read-out: Cmax) was 0.0446 µg/mL, the Tmax ([2]; plasma, group 2, oral QD 450 mg/kg/dose, day 3) was 30 min and the Cmax ([2]; plasma, group 2, oral QD 450 mg/kg/dose, day 3, read-out: Cmax (±SE)) was 0.604 ± 0.0833 µg/mL. It also gave an AUC(0-t) ([2]; plasma, group 2, oral QD 450 mg/kg/dose) of 1.32 µg·h/mL, a Tmax ([2]; plasma, group 3, oral TID 150 mg/kg/dose = 450 mg/kg/day, day 3) of 30 min and a Cmax ([2]; plasma, group 3, oral TID 150 mg/kg/dose = 450 mg/kg/day, day 3, read-out: Cmax (±SE)) of 0.452 ± 0.0476 µg/mL. It also gave an AUC(0-t) ([2]; plasma, group 3, oral TID 150 mg/kg/dose = 450 mg/kg/day) of 1.36 ± 0.211 µg·h/mL, a Tmax ([2]; plasma, group 4, oral TID 150/150/300 mg/kg/dose = 600 mg/kg/day, day 3) of 30 min and a Cmax ([2]; plasma, group 4, oral TID 150/150/300 mg/kg/dose = 600 mg/kg/day, day 3, read-out: Cmax (±SE)) of 0.278 ± 0.0463 µg/mL. For the same molecule, the AUC(0-t) ([2]; plasma, group 4, oral TID 150/150/300 mg/kg/dose = 600 mg/kg/day) was 2.27 ± 0.587 µg·h/mL, the Cmean [2, 6] was 332.8 ng/mL and the Cmin [2, 6] was 0.1494 µg/mL. For the same molecule, the “AUC of single daily 450 mg/kg dose relative to edasalonexent in diet” value ([2]; group 2 (450 mg/kg QD) versus group 1 (1.5% in diet), plasma) was about 2.5 fold, the Cmin ([2]; plasma, 1.5% edasalonexent in diet (group 1)) was 0.0107 µg/mL and the Cmean ([2]; plasma, 1.5% edasalonexent in diet (group 1), from seventh day of dosing) was 22.4 ng/mL.
